Measurements: US20240207282A1, “METHOD OF INCREASING CHAPERONE MEDIATED AUTOPHAGY BY STABILIZING THE INTERACTION OF RETINOIC ACID RECEPTOR-ALPHA AND AN INHIBITOR” (ALBERT EINSTEIN COLLEGE OF MEDICINE, priority 2021, published 2024)

Key:
[1] = Bidirectional permeability assay with CaCo-2 cells; format: in vitro ADME
Procedure: In vitro solubility in the following conditions A) HBSS/HEPES 10 mM/BSA 0.1% pH 6 B) HBSS/HEPES 10 mM/BSA 0.1% pH 7.4 C) TRIS/BSA 0.1% PBS (pH 7.4 and at indicated doses were measured by Nephelometry using the NEPHELOstar Galaxy apparatus (BMG Lab Technologies). In vitro stability in human, mouse and rat liver microsomes and permeability using a bidirectional permeability assay with CaCo-2 cells (pH 6.5/7.4) assays were performed with standard methodology and analyzed by LC-MS/MS. at SIMM-SERVIER joint Biopharmacy Laboratory. In silico ADME properties calculated by QikProp (Schrodinger, LLC) analysis and ADME predictions for CA39 (left) and CA77 (right).

rd10 mice = assay: rd10 mouse retinal degeneration, single intravitreal injection; format: in vivo
Procedure: Cryosections and immunofluorescence: Cryosections and immunofluorescence in retinal sections were performed as previously described 10. Primary antibodies used in this study were Transducin (Santacruz Biotechnologies) and Opsin R/G (Millipore). Sections were visualized by confocal microscopy (TCS SP5; Leica Microsystems). ONL thickness and outer segment length quantification: For ONL thickness quantification, DAPI images were taken at 40× in a fluorescence microscope Multidimensional system Leica AF6000 LX coupled to DMI600B microscope and Hamamatsu CCD 9100-02 camera. At least two sections per animal were analyzed, preferably central sections. Eight images per retina equally distributed along the retina were acquired. Three measures were taken per image and ratio ONL/INL quantified with ImageJ tools. Leica LAS-X was used for image acquisition and ImageJ (v.2.1.0) was used for image processing. For OS length measures, fixed positions common to all pictures were considered and OS length was measured using ImageJ straight line tool.

CC(=O)Nc1ccc(C2=Nc3ccc(Cl)cc3OC2)cc1 [CA77]
membrane permeability [1]: highly membrane permeable | vision (rd10 mice; 7 days after single intravitreal injection): preserved vision | retinal ONL/INL ratio, OS and ONL preservation (rd10 mice; 7 days after single intravitreal injection (40 μM) at P18): thicker retinal ONL/INL ratio and better OS and ONL preservation | gliosis (rd10 mice; single intravitreal injection (40 μM) at P18): significantly improved
